The record followed here is patent US20230190707A1, “COMPOSITIONS AND METHODS FOR ENHANCING CANCER IMMUNOTHERAPY” (FRED HUTCHINSON CANCER CENTER, priority 2020, published 2023).

In one series the test system is MC38 cells. Put plainly: In vitro growth of MC38 cells after MS-023 treatment and washout. The class given is cell-based, mouse. The settings on record: 5 μM for 96 hours. The procedure: Unless otherwise specified, cell lines were treated with splicing inhibitors at the indicated concentrations for 96 hours in vitro, harvested and washed three times with PBS in excess to remove all drug, and then used for downstream analyses and/or subsequent studies, including phenotyping, RNA-seq analyses, continued growth in vitro, or tumor challenge in vivo into syngeneic animals.

A further series concerns the target T1, RBM39 (Mus musculus, UniProt Q6PFH3+Q8VH51).
T1 construct: endogenous in cells; host or cells: B16-F10 (also MC38, CT26, LLC)
Briefly: RBM39 protein in tissues after in vivo indisulam. The conditions noted are these: therapeutic indisulam doses. The procedure:
Western blotting was performed as per standard techniques. Anti-RBM39 (Atlas Antibodies, Cat. HPA001591 or Bethyl laboratories, Cat. A300-291A) were used to detect RBM39 degradation. ADMA and SDMA levels were determined using antibodies from Cell Signaling Technologies (Cat. 13222S and Cat. 135225). Actin antibody (clone AC-15) was obtained from MilliporeSigma (Cat. A5441-.2ML). Densitometry of RBM39 and actin loading control was performed using ImageJ software in order to calculate RBM39 degradation IC50 values.
Mice were weighed weekly for weight-based drug dosing.

The test system of series [1] is B16-F10, MC38, CT26, and LLC cells. Briefly: Cell growth/viability IC50 (CellTiter-Glo). The series is classed as cell-based. The settings on record: Mus musculus; range across B16-F10, MC38, CT26, LLC cells. The protocol:
Cell lines were grown with half-log10 concentrations of the indicated drug in 4 to 8 technical replicates under standard conditions until the control condition (DMSO or vehicle) was confluent by microscopy. For tumor cell lines, viable cells were quantified via the CellTiter-Glo® assay (Promega Cat. G7573) as per manufacturer instructions. For the ex vivo proliferation of T cells, viable cells were instead quantified via flow cytometry using counting beads. The percentage or number of viable cells with drug treatment was calculated relative to DMSO control (as 100%). […] For absolute cell number, Annexin V+, CD25+, and PD1+ flow cytometry data presented in Figure S4, dose-response models and IC50 values were computed using the R language's dre package (Ritz, C., et al. (2015). Dose-Response Analysis Using R. PLoS One 10, e0146021).
Background: Cellular ATP, detected with luciferase, serves as a proxy for viable cell number.

The subject of a further series is B16-F10 cells. Put plainly: Engraftment of indisulam-treated B16-F10 cells into hosts with immune perturbations or with B2m knockout. The series is classed as in vivo, mouse. An excerpt: B16-F10, CT26.WT (CT26), and LLC cells were obtained from ATCC (Cat. CRL-6475, CRL-2638, and CRL-1642 respectively). MB49 cells were obtained from MilliporeSigma (Cat. SCC148, Burlington, Mass.); MC38 cells were obtained from Kerafast (Cat. ENH204-FP, Boston, Mass.). B16-F10 and MC38 cells expressing chicken ovalbumin (B16ova and MC38ova) were a kind gift of Jeff Ravetch (Rockefeller University, New York, N.Y.). To generate β2 microglobulin deficient cell lines for in vitro experiments, four candidate sgRNAs for mouse β2microglobulin (#1 […] (SEQ ID NO:2), #2 […] (SEQ ID NO:3), #3 […] (SEQ ID NO:4), #4 […]) (SEQ ID NO:5), or nontargeting control ([…]) (SEQ ID NO:6) were cloned into pSpCas9(BB)-2A-Puro (PX459) as previously described (Ran, F. A., et al. (2013). Genome engineering using the CRISPR-Cas9 system. Nat Protoc 8, 2281-2308, incorporated herein by reference in its entirety) and used to engineer deficient MC38, B16-F10, and CT26 cell lines via transfection using XtremeGene 9 reagent as per manufacturer's instructions (MilliporeSigma Cat. 6365809001) followed by puromycin selection at 10 μg/mL for three days. Polyclonal cell populations were obtained by flow sorting for H-2K^b/D^b and P2 microglobulin double-negative cells, and gene knockout further confirmed by stimulating a culture of these sorted cells for 48 hours with 10 U/mL mouse IFNγ and analyzing for the same markers. For in vivo experiments, lentiCas9-Blast was used to generate Cas9-expressing B16-F10 cells. […]
Unless otherwise specified, syngeneic B6 or Balb/c mice were engrafted subcutaneously on bilateral flanks with MC38, B16-F10, CT26 or LLC tumor cells at the following doses: MC38 10^6 cells, B16-F10 0.5×10^6 cells, CT26 0.25×10^6 cells, LLC 0.25×10^6 cells. Tumors were measured serially twice or three times weekly and tumor volumes were estimated by length×width×height. Animals were monitored daily for survival and weighed twice weekly. […]

Another series relates to CD8^+ T cells. Put plainly: Peptide:H-2K^b tetramer staining of tumor-draining lymph nodes. The class given is in vivo, mouse. The conditions noted are these: B16-F10 tumor-bearing mice, day 14.
In series [2] the test system is MHC I, MHC II, PD-L1, IFNγ receptors, TNF receptors, DR5. Briefly: Cell-surface marker expression after drug treatment. The class given is cell-based, mouse.
For series [3] the following is noted: mouse, in vivo.
Protocol: Animals were subcutaneously engrafted on bilateral flanks with tumor cells (MC38 1×10^6, B16-F10 0.5×10^6 and LLC 0.25×10^6 cells unless otherwise specified) on day 0, and treated continuously with splicing inhibitors (MS-023 50 mg/kg i.p., indisulam 25 mg/kg i.v. or vehicle) daily for 5 of 7 weekly days starting from day +3 of tumor challenge. […] Mice were weighed weekly for weight-based drug dosing.

In the case of `CC(C)Oc1ccc(-c2c[nH]cc2CN(C)CCN)cc1` [MS-023], the “cell growth in vitro after drug washout” value in the series on MC38 cells is “minimal effects”.

The IC50 is the midpoint of a concentration-inhibition curve. With `NS(=O)(=O)c1ccc(S(=O)(=O)Nc2cccc3c(Cl)c[nH]c23)cc1` [indisulam], the “RBM39 protein in tumoral as well as immune tissues in vivo” value at RBM39 is listed as “on-target RBM39 protein reduction”. The same compound displayed an IC50 in series [1] of 2.1 to 73 µM. In addition, the “growth inhibition with loss of β2-microglobulin in B16-F10” value in the series with B16-F10 cells (B2m CRISPR knockout vs control B16-F10, indisulam pretreatment) was “rescued the growth inhibition”. Also, in the series on B16-F10 cells (B16-F10 treated 1 μM 96 hours, NK cell depletion), the “in vivo growth inhibition with NK depletion” value is reported as “did not rescue cell growth”. Further, the “in vivo tumor growth inhibition in Rag2 recipients and with T cell depletion” value in the series on B16-F10 cells (B16-F10 treated 1 μM 96 hours, anti-CD4 and anti-CD8) was “rescued”. Moreover, the “frequencies of CD8^+ T cells recognizing splicing-derived peptides in tumor DLN” value in the series with CD8^+ T cells is “increased frequencies of CD8^+ T cells”. In addition, in series [2], the “cell-surface expression of MHC I, MHC II, PD-L1, or cytokine or death receptors” value is recorded as “did not change”. In series [3], the “lymphocytes, neutrophils, or other peripheral blood counts” value is recorded as “negligible effects”.
